From patent US20030113810A1, “Novel assay” (priority 2000, published 2003)

Key:
[1] = biological target: T1, rGPR41 (Rattus norvegicus, UniProt B2GV46); test: Yeast FUS1-lacZ/FUS1-HIS3 reporter assay, rGPR41 in S. cerevisiae MMY22 (Gpa1/Gαo), FDG substrate; type: cell-based; design: expressed in transfected cells; host or cells: S. cerevisiae MMY22 (A1, A5; Gpa1/Gαo integrated) or MMY11 + pRS314-Gpa1/Gαo (A4), transformed with p426GPD-rGPR41; settings: for relative agonist activity at rGPR41 (in words): yeast MMY22, carboxylic acid series C1-C12, FIG. 8; for EC50: read-out: Agonism @ rGPR41 Approx. EC50
T1 sequence (B2GV46 1-319): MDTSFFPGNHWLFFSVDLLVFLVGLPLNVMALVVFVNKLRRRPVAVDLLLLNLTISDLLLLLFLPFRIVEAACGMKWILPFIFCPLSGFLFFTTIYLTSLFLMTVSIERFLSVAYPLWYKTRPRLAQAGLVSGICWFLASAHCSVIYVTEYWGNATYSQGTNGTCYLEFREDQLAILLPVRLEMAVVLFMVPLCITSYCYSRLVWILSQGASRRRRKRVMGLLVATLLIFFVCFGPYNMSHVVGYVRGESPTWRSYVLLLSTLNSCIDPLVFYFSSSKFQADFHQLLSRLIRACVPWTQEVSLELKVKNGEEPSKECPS
Description: A study was carried out of the function of rGPR41 following expression in S. cerevisiae MMY22, which is a derivative of S. cerevisiae MMY11 containing a copy of the gene encoding the Gpa1/Gαo transplant chimera described above (in which the 5 C-terminal amino acids of Gpa1 are replaced with the 5 C-terminal amino acids of Gαo) integrated into the genome. To do this, a cassette comprising the GPA1 promoter, nucleotide sequence encoding Gpa1/Gαo, and the terminator was sub-cloned from pRS314-Gpa1/Gαo into the yeast integrating plasmid pRS304 (Sikorski and Hieter, 1989). The resulting plasmid pRS304-Gpa1/Gαo was transformed into MMY11 and integrated into the trp1 locus creating MMY22.
The rGPR41 expression construct described above, p462GPD-rGPR41 was introduced into MMY22 by transformation as described above. Four separate transformants were tested for reporter gene activation in response to propionate. Assays for FUS1-lacZ and FUS1-HIS3 induction were performed as described, except the β-galactosidase (lacZ) substrate fluorescein di-β-D-galactopyranoside (FDG) was used in place of CPRG, and 3-aminotriazole concentration was 5 mM. Also, black-walled 96-well microtitre plates were used, and fluorescence resulting from degradation of FDG to fluorescein due to β-galactosidase was determined using a Spectrofluor microtitre plate reader (Tecan)(excitation wavelength: 485 nm; emmision wavelength: 535 nm).
A series of carboxylic acids and other compounds related to propionate were tested for the ability to activate rGPR41. Experiments were performed as described above, using yeast cells of strain MMY22 transformed with rGPR41 expression plasmid p462GPD-rGPR41, except that the agonist propionate was replaced with one of a series of other compounds, which are listed in table 2 below.
(§1) In vivo assays of reporter gene induction were carried out by suspending MMY11 cells transformed as described above to a density of 0.02 OD600/ml in 200 μl SC-glucose (2%) medium lacking tryptophan, uracil and histidine. This medium was supplemented with 10 mM 3-aminotriazole and the β-galactosidase (lacZ) substrate chlorophenolred-β-D-galactopyranoside (CPRG; Boehringer Mannheim) to a concentration of 0.1 mg/ml. Additionally the medium was supplemented with various concentrations of the agonist ligand, propionate (sodium propionate, pH 7.0). To visualise the yellow to red colour change reaction occurring on degradation of CPRG due to β-galactosidase, the medium was buffered to pH 7 with 0.1 M sodium phosphate. The assay was conducted in flat-bottomed sterile 96-well microtitre plates. Plates were incubated for 24 hours at 30° C. without agitation, and absorbance at 570 nm was determined using a Spectrofluor microtitre plate reader (Tecan).

[2] = biological target: T1, rGPR41; test: Yeast reporter assay, rGPR41 in MMY22, CPRG substrate (3-hydroxybutyrate study); type: cell-based; design: expressed in transfected cells; host or cells: S. cerevisiae MMY22 (A1, A5; Gpa1/Gαo integrated) or MMY11 + pRS314-Gpa1/Gαo (A4), transformed with p426GPD-rGPR41; settings: for agonism at rGPR41 (in words): FIG. 9
Description: A study was made of the agonism of rGPR41 by the naturally-occurring ketone body compound, 3-hydroxybutyrate. Experiments were performed as described above, using yeast cells of strain MMY22 transformed with rGPR41 expression plasmid p462GPD-rGPR41, except that the substrate CPRG was used. Also, the agonist propionate was replaced with 3-hydroxybutyrate (β-hydroxybutyrate), either as a racemic mix of both stereoisomers, or as purified enantiomers D-3-hydroxybutyrate, or L-3-hydroxybutyrate.
as §1

[3] = biological target: T2, human GPR41 (Homo sapiens, UniProt O14843); settings: membranes of HEK293T cells, human GPR41 + Go1α; FIG. 2-4
T2 sequence (O14843 1-346): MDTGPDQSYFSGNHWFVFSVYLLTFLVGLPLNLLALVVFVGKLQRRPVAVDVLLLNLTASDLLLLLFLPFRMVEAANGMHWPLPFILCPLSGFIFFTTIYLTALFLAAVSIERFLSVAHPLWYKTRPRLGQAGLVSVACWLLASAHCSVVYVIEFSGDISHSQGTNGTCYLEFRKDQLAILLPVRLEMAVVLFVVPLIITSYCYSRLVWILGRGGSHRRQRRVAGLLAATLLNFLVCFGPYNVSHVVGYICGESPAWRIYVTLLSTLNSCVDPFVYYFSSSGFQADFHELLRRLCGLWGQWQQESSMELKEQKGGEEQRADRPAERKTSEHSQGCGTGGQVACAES
Description: HEK293T cells (HEK293 cells stably expressing the SV40 large T-antigen) were maintained in DMEM containing 10% (v/v) foetal calf serum and 2 mM glutamine. Cells were seeded in 60 mm culture dishes and grown to 60-80% confluency (18-24 h) prior to transfection with pCDNA3 containing the relevant DNA species using Lipofectamine reagent. For transfection, 3 μg of DNA was mixed with 10 μl of Lipofectamine in 0.2 ml of Opti-MEM (Life Technologies Inc.) and was incubated at room temperature for 30 min prior to the addition of 1.6 ml of Opti-MEM. Cells were exposed to the Lipofectamine/DNA mixture for 5 h and 2 ml of 20% (v/v) newborn calf serum in DMEM was then added. Cells were harvested 48-72 h after transfection.
Plasma membrane-containing P2 particulate fractions were prepared from cell pastes frozen at −80° C. after harvest. All procedures were carried out at 4° C. Cell pellets were resuspended in 1 ml of 10 mM Tris-HCl and 0.1 mM EDTA, pH 7.5 (buffer A) and by homogenisation for 20 s with a polytron homogeniser followed by passage (5 times) through a 25-guage needle. Cell lysates were centrifuged at 1,000 g for 10 min in a microcentrifuge to pellet the nuclei and unbroken cells and P2 particulate fractions were recovered by microcentrifugation at 16,000 g for 30 min. P2 particulate fractions were resuspended in buffer A and stored at −80° C. until required. Protein concentrations were determined using the bicinchoninic acid (BCA) procedure (4) using BSA as a standard.
Assays were performed in 96-well format using a method modified from Wieland and Jakobs, 1994. Membranes (10 μg per point) were diluted to 0.083 mg/ml in assay buffer (20 mM HEPES, 100 mM NaCl, 10 mM MgCl2, pH7.4) supplemented with saponin (10 mg/l) and pre-incubated with 40 μM GDP. […] Non-specific binding was determined by the inclusion of 0.6 mM GTP. […] Plates were centrifuged at 1500 g for 5 min and bound [^35S]GTPγS was determined by scintillation counting on a Wallac 1450 microbeta Trilux scintillation counter.

[4] = yeast MMY22 with p462GPD-rGPR41, FDG fluorescence, compounds as salt solutions buffered to pH 7.0

Molecule | Agonism @ rGPR41 Approx. EC50 (M) [1, 4] | other results
CC(O)C(=O)O (stereo not drawn) [lactate] | Inactive | 
CCCCCC/C=C\CCCCCCCC(=O)O [Palmitoleic acid] | Toxic/inactive | 
O=C1O[C@H]([C@@H](O)CO)C(O)=C1O [Ascorbate] | Inactive | 
O=C(O)/C=C/C(=O)O [Fumarate] | Inactive | relative agonist activity at rGPR41 (in words) [1]: either inactive or had very weak activities
CCCCCCC(=O)O [Heptanoic C7 acid] |  | EC50 [1, 4]: ~100 µM
O=C(O)CC(=O)C(=O)O [Oxaloacetate] | Inactive | 
CCCCCC(=O)O [Caproic C6 acid] |  | EC50 [1, 4]: ~30 µM
O=C(O)/C=C\C(=O)O [maleate] | Inactive | 
CC(C)=O [Acetone] |  | Agonism @ rGPR41 Approx. EC50 (M) ([1]; pH 7): Inactive
O=CC(=O)O [Glyoxylic acid] |  | EC50 [1, 4]: ~50000 µM
CC(C)(C)C(=O)O [pivalic acid] |  | EC50 [1, 4]: ~500 µM
CCCCCCCCCC(=O)O [Decanoic C10 acid] | inactive/toxic | relative agonist activity at rGPR41 (in words) [1]: inactive
C[C@@H](O)CC(=O)O [D-b-Hydroxybutyrate] |  | EC50 [1, 4]: ~10000 µM; agonism at rGPR41 (in words) [2]: similarly active to the racemic mix DL-3-hydroxybutyrate
O=C(O)CO [glycolate] | weak active | 
CCCCCCCCCCCC(=O)O [Lauric C12 acid] | inactive/toxic | relative agonist activity at rGPR41 (in words) [1]: inactive
C=CCCC(=O)O [4-pentenoate] |  | EC50 [1, 4]: ~30 µM
CCCCC/C=C\C/C=C\CCCCCCCC(=O)O [Linoleic acid] | Toxic/Inactive | 
O=C(O)c1ccccc1 [benzoate] |  | Agonism @ rGPR41 Approx. EC50 (M) ([1]; pH 7): Toxic
CCCCCCCCCCC(=O)O [Undecanoic C11 acid] | inactive/toxic | relative agonist activity at rGPR41 (in words) [1]: inactive
CCC(O)C(=O)O (stereo not drawn) [alpha-hydroxybutyrate] | Inactive | 
CCCCCCCCCCCCCCCC(=O)O [palmitate] | Inactive | 
CCCC(=O)O [n-Butyrate] |  | EC50 [1, 4]: ~50 µM
NCC(=O)O [Glycine] | Inactive | 
CCCCC(=O)O [Pentanoate (n-valerate)] |  | relative agonist activity at rGPR41 (in words) [1]: similarly or slightly more active than propionate; EC50 [1, 4]: ~3 µM
O=C(O)C(=O)O [Oxalate] |  | EC50 [1, 4]: ~3000 µM
O=C(O)CC(=O)O [malonate] | Inactive | 

Molecule | Agonism @ rGPR41 Approx. EC50 (M) [1, 4] | other results
O=C(O)CC(O)(CC(=O)O)C(=O)O [Citrate] | Inactive | relative agonist activity at rGPR41 (in words) [1]: either inactive or had very weak activities
CC(N)=O [acetamide] | very weak active | 
O=CO [Formate] |  | Agonism @ rGPR41 Approx. EC50 (M) ([1]; pH 7): Weak active
CCCCCCCCCCCCCCCCCC(=O)O [stearate] | Inactive | 
O=C(O)CCC(=O)O [Succinate] | Inactive | relative agonist activity at rGPR41 (in words) [1]: either inactive or had very weak activities
CN[C@H](CC(=O)O)C(=O)O [NMDA] | Inactive | 
CC(=O)CC(=O)O [Acetoacetate] | weak active | 
CCCCCCCC/C=C\CCCCCCCC(=O)O [oleate] | Inactive | 
O=CC=O [Glyoxal] |  | Agonism @ rGPR41 Approx. EC50 (M) ([1]; pH 7): Toxic
CS(=O)(=O)O [methylsulphonate] | Inactive | 
O=C(O)CCCO [γ-hydroxybutyrate] |  | EC50 [1, 4]: ~10000 µM
O=C(O)C(F)(F)F [Trifluoroacetate] | weak active | 
CC(=O)C(=O)O [pyruvate] | Inactive | 
CC(O)CC(=O)O (racemic) [DL-b-Hydroxybutyrate] |  | EC50 [1, 4]: ~10000 µM; agonism at rGPR41 (in words) [2]: agonist at rGPR41 with a potency similar or slightly less than acetate; lowest concentrations causing detectable activation of rGPR41 (threshold) ([2]; FIG. 9, listed as 3-hydroxybutyrate): approximately 1 mM; stimulation of [35S]GTPγS binding [3]: elevate [^35S]GTPγS binding
N[C@@H](CCC(=O)O)C(=O)O [Glutamate] | Inactive | 
O=C(O)c1cccnc1 [nicotinic acid] |  | Agonism @ rGPR41 Approx. EC50 (M) ([1]; pH 7): Inactive
NCCCC(=O)O [GABA] | Inactive | 
CCCCCCCC(=O)O [Caprylic C8 acid] | weak active | 
CC(C)C(=O)O [Isobutyrate] |  | EC50 [1, 4]: ~30 µM
CCCCCCCCC(=O)O [Nonanoic C9 acid] | inactive/toxic | relative agonist activity at rGPR41 (in words) [1]: inactive
C[C@H](O)CC(=O)O [L-b-Hydroxybutyrate] |  | EC50 [1, 4]: ~10000 µM
C[C@H](N)C(=O)O [Alanine] | Inactive | 
C/C=C(\C)C(=O)O [tiglic acid] | Inactive | 
methyl-2-imidazoline | Toxic/inactive | 
O=C(O)C(O)C(O)C(=O)O (stereo not drawn) [Tartrate] | Inactive | 
